According to patent publication US12268727B2, “Bioactive polypeptides for improvements in plant protection, growth and productivity” (priority 2017, dated 2025):

Columns and labels:
[1] = test system: reactive oxygen species (ROS) production in Kiwi 'Hayward' leaf petioles; assay: ROS activity assay in kiwi leaf petioles; type: cell-based, Actinidiae deliciosa; conditions: 100 nM peptide; Kiwi 'Hayward' leaf petiole slices; 40 minutes time course
Description: To test the sensitivity of kiwi leaves to 22-amino acid fragments of flagellin, 1 mm slices were cut through Actinidiae deliciosa Kiwi ‘Hayward’ leaf petioles and floated in 150 μL of water in a 96-well plate, with one slice per well. […] In two independent experiments, a total of 6 kiwi leaf petiole samples were treated with each Flg22 polypeptide in Table 94. The average total RLU and standard error of the means (SEM) was calculated for each treatment. A two-tailed T-test was used to determine significance at the 90% confidence level (P<0.1) between treatments. Relative ROS production was determined for each polypeptide in comparison to total RLUs for the 100 nM Bt.4Q7Flg22 control.

soybean [2] = assay: Soybean pod number after foliar application; type: in vivo; conditions: 300 nM at R1 and 17 days later, counted after 31 days
Description: Plants were then placed under a long day conditions consisting of 16/8 light/day cycle and temperature 21-26° C. to promote early flowering and speed up progression to the reproductive (R) growth stage. When the soybean plants had reached the R1 stage of development a foliar application containing the Gm.RHPP (SEQ ID NO: 600) polypeptide at a final concentration of 300 nM and a non-ionic surfactant of 0.10% (NIS90:10; Precision Laboratories, LLC) was applied to soybean. Soybean plants were provided with the Gm.RHPP formulation and a non-ionic surfactant only control. Both the Gm.RHPP and the non-ionic surfactant control treatment were applied to 18 plants per treatment. Six equidistant sprays were provided approximately 15 cm above per each plant for complete coverage of foliage. After treatment application, the R1 soybean plants were returned to the control environmental growth room. […] Soybean pods of more than 1 mm in length were counted on the plants after 31 days from the first foliar spray treatment applications. […] A p value (p<0.05 for significance) was calculated from a paired T-test comparison between pod number from plants that received the Gm.RHPP and the non-ionic surfactant control treatment applications.

soybean [3] = assay: Soybean nodulation, root biomass and total biomass after foliar application; type: in vivo
Description: Effective nodulation of soybean roots result in higher yields and higher quality seed production, protein and oil per seed or acre basis. This could be due to increased nitrogen fixation since nodulale formation increases nitrogen fixation. To determine whether root hair promoting bioactive priming polypeptide, RHPP (SEQ ID NO: 600) could modulate root biomass and nodulation and thereby improve nitrogen fixation, soybean plants (hybrid Morsoy 38X52 and Beck's hybrid 297R4) were treated with foliar application of RHPP (300 nM) at the R1-R2 stage of development.
RHPP bioactive priming polypeptide (SEQ ID NO: 600, originally derived from Glycine max) was applied as foliar treatment to 4-week-old hybrid soybean (Morsoy variety) with 0.1% (v/v) non-ionic surfactant ([…] SURFACE™) using a spray bottle and delivering approximately 1.25 ml/plant. The experiment was conducted using a total of 8 plants per trial per treatment group. […] Growth parameters of nodule counts, root biomass and total biomass per plant were measured at 15 days post the foliar application and compared between the foliar treatments consisting of […] SURFACE surfactant (0.1% v/v) as a control and the RHPP polypeptide (300 nM) containing the […] SURFACE surfactant (0.1% v/v). Average growth parameters as described were normalized to the control plants that received the surfactant alone treatment (Table 38).

[4] = 300 nM + 0.1% v/v ALLIGARE SURFACE, Morsoy soybean, 15 days post application
[5] = 300 nM + 0.1% v/v ALLIGARE SURFACE, Morsoy soybean, 15 days post foliar application, n = 8
[6] = 300 nM, Morsoy, 15 days post application

Substance	Average Total Relative Light Units (RLUs); SEM in parentheses [1]	pod count vs non-ionic surfactant control (soybean [2])	Average nodule count per plant, RHPP treatment normalized as a percentage of the surfactant control (soybean [3]; [4]) [%]	Root biomass, RHPP treatment normalized as a percentage of the surfactant control (soybean [3]; [4]) [%]	Total biomass, RHPP treatment normalized as a percentage of the surfactant control (soybean [3]; [4]) [%]	Average nodule count per plant (soybean [3]; [5])	Root biomass (soybean [3]; [5]) [g]	Total biomass (soybean [3]; [5]) [g]	increase in root biomass normalized to control (soybean [3]; [6])	increase in total biomass normalized to control (soybean [3]; [6]) [%]	number of nodules per plant vs surfactant control (soybean [3]; [6])
Bt.4Q7Flg22: Flg22 polypeptide (22 amino acids) from flagellin of Bacillus thuringiensis strain 4Q7 (DRLSSGKRINSASDDAAGLAIA; listed as Bacillus thuringiensis)	47,457 RLU										
GGIRAAPTGNER (Glycine max) [RHPP, Root Hair Promoting Peptide from Glycine max]		approximately doubled pod count	170.42	120.57	108.44	15.13	2.13	46.24	more than 20%	8	approximately two times the number of nodules
